Read-outs that look alike come from different tables or passages of the source.
Tests used:
[1] = system: TNF-α mRNA; test: LPS-induced TNF-α gene expression in THP-1 macrophages (qRT-PCR); assay type: cell-based, human; details: 4 h LPS, LPS-treated cells = 100%; for decrease in TNF-α mRNA: compound 50 µg/mL
Experimental: (§1) The human THP-1 monocyte cell line was obtained from ATCC (American Type Culture Collection). […] The THP-1 monocytes were stimulated to differentiate into macrophages with phorbol 12-myristate 13-acetate (PMA) (50 ng/mL) for 24 h. The medium was exchanged for PMA-free medium for 48 h before the cells were used for experiments.
(§2) The total RNA was isolated from THP-1 cells using TRIzol reagent, according to the manufacturer’s protocol. First-strand cDNA was synthesized from 2 µg of RNA using oligo(dT) primers with RevertAid H Minus kit (Thermo Fisher Scientific, USA). The qRT-PCR procedure was performed using ABsolute Blue QPCR SYBR Green Master Mix reagent (Thermo Fisher Scientific, USA) with a ViiA7 real-time PCR detection system (Applied Biosystems, USA). The primer pairs that were employed for HCA2/GPR109A were forward 5′-[…]-3′ and reverse 5′-[…]-3′; for FFA2/GPR43 were forward 5′-[…]-3′ and reverse 5′-[…]-3′; for FFA3/GPR41 were forward 5′-[…]-3′ and reverse 5′-[…]-3′; for IL-6 were forward 5′-[…]-3′ and reverse 5′-[…]-3′; for MCP-1 were forward 5′-[…]-3′ and reverse 5′-[…]-3′; for TNF-α were forward 5′-[…]-3′ and reverse 5′-[…]-3′; for RPS29 were forward 5′-[…]-3′ and reverse 5′- […]-3′. The mRNA levels were quantified and normalized to the levels of the reference gene RPS29 using the 2^−ΔΔCt method and presented as relative expression compared to the values for untreated cells.

[2] = system: MCP-1 mRNA; test: LPS-induced MCP-1 gene expression in THP-1 macrophages (qRT-PCR); assay type: cell-based, human; details: 4 h LPS, LPS-treated cells = 100%; for decrease in MCP-1 mRNA: compound 50 µg/mL
Experimental: as §1, §2

[3] = target: T1, FFA3/GPR41 (Homo sapiens, UniProt O14843); test: forskolin-stimulated cAMP accumulation assay, Flp-In-293 cells stably expressing FFA3/GPR41; assay type: cell-based; details: for Emax: read-out: FFA3/GPR41 Emax, maximal inhibition of forskolin-stimulated cAMP (converted)
T1 construct: host or cells: Flp-In-293
T1 sequence (O14843 1-346): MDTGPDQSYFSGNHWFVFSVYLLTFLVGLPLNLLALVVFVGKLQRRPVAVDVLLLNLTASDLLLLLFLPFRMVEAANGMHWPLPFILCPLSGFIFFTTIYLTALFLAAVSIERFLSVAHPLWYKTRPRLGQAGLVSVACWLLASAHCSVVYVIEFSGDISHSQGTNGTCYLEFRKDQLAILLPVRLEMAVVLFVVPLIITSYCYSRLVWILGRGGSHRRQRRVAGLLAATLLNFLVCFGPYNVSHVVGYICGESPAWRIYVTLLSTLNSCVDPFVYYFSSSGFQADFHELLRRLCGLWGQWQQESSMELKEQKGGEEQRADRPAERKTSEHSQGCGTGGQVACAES
Experimental: (§3) All of our synthesized compounds were evaluated in forskolin-stimulated cAMP accumulation assay using Flp-In-293 cells stably expressing human FFA2/GPR43, FFA3/GPR41 or HCA2/GPR109A receptors (Table 1, Table 2 and Table 3; Figure 2).
(§4) Flp-In-293 cells (Invitrogen) were used for the generation of stable FFA3/GPR41 and FFA2/GRP43 cell lines using Flp-In System (Invitrogen). Flp-In-293 cells were cultured in Dulbecco’s modified Eagle medium (DMEM) supplemented with 10% fetal bovine serum (FBS), penicillin (100 U/mL), streptomycin (100 µg/mL), and zeocin (100 µg/mL). The cells were co-transfected with pOG44 (Invitrogen) and pcDNA5/FRT-FFA3 or pcDNA5/FRT-FFA2 using TurboFect (Thermo Fisher Scientific), and stable cell lines were generated according to the manufacturer’s protocol (Invitrogen). After transfection, the cells were cultured under selection pressure due to the presence of hygromycin B (100 µg/mL) in DMEM supplemented with 10% FBS, penicillin, and streptomycin.
(§5) For cAMP assay, the cells were distributed into a 384-well white microplate at a density of 12,000 cells per well and stimulated with the indicated compounds in the presence of 3 μM forskolin for 30 min. […] The cells and the compounds were diluted in 1X phosphate-buffered saline (PBS) supplemented with 0.5 mM of 3-isobutyl-1-methylxanthine. The intracellular cAMP levels were measured using a Lance cAMP kit according to the manufacturer’s instructions. The plates were read on a PerkinElmer Victor 3V multilabel plate reader. The cAMP was quantitated in each sample by comparison to a calibration curve of known cAMP quantities provided in the kit.

[4] = system: FFA3/GPR41 mRNA; test: FFA3/GPR41 gene expression in LPS-stimulated THP-1 macrophages (qRT-PCR); assay type: cell-based, human; details: 4 h LPS 1 µg/mL; for LPS-stimulated FFA3/GPR41 mRNA level: compound 50 µM, p < 0.05
Experimental: as §1, §2

[5] = target: T2, HCA2/GPR109A (Homo sapiens, UniProt Q8TDS4); test: forskolin-stimulated cAMP accumulation assay, Flp-In-293 cells stably expressing HCA2/GPR109A; assay type: cell-based; details: for Emax / EC50: mean ± SD; for Emax: read-out: HCA2/GPR109A Emax, maximal inhibition of forskolin-stimulated cAMP (converted); for EC50: inhibition of forskolin-stimulated cAMP, read-out: HCA2/GPR109A EC50
T2 construct: expressed in transfected cells; host or cells: Flp-In-293
T2 sequence (Q8TDS4 whole entry): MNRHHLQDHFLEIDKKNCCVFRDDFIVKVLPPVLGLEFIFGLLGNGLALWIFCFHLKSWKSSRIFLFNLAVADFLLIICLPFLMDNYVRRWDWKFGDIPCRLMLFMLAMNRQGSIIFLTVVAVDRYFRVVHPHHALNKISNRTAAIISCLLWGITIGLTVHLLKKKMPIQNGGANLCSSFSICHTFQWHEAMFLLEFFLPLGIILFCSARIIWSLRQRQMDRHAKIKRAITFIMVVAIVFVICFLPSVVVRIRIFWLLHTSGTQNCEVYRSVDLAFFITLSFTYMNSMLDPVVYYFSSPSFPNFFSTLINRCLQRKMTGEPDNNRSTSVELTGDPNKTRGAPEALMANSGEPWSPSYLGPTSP
Experimental: as §3
Flp-In-293 cells stably expressing human HCA2/GPR109A receptor (laboratory collection) were grown in DMEM medium supplemented with 10% FBS, penicillin, streptomycin, and hygromycin B (100 µg/mL). All cells were cultured at 37 °C in a humidified incubator containing 5% CO2.
as §5

[6] = system: IL-6 mRNA; test: LPS-induced IL-6 gene expression in THP-1 macrophages (qRT-PCR); assay type: cell-based, human; details: 4 h LPS, LPS-treated cells = 100%; for decrease in IL-6 mRNA: compound 50 µg/mL
Experimental: as §1, §2

[7] = cyclic voltammetry, electrooxidation potential; assay type: physicochemical; details: vs. Ag/Ag+; acetonitrile, glassy carbon electrode
Experimental: Cyclic voltammetry experiments were carried out using a PARSTAT 2273 electrochemical system. A stationary glassy carbon disk electrode (d = 0.8 mm) served as the working electrode, while the counter electrode was a Pt wire. The oxidation potentials were measured relative to an Ag/Ag^+ reference electrode. Acetonitrile was dried over P2O5 and distilled; the distillate was stored over CaH2 and redistilled immediately prior to use. Recrystallized tetrabutylammonium tetrafluoroborate (TBATFB) was used as a supporting electrolyte at 0.1 M concentration.

[8] = target: T3, FFA2/GPR43 (Homo sapiens, UniProt O15552); test: forskolin-stimulated cAMP accumulation assay, Flp-In-293 cells stably expressing FFA2/GPR43; assay type: cell-based; details: for inhibition at 50 µM: 50 µM compound, NA = not active up to 50 µM
T3 construct: host or cells: Flp-In-293
T3 sequence (O15552 1-330): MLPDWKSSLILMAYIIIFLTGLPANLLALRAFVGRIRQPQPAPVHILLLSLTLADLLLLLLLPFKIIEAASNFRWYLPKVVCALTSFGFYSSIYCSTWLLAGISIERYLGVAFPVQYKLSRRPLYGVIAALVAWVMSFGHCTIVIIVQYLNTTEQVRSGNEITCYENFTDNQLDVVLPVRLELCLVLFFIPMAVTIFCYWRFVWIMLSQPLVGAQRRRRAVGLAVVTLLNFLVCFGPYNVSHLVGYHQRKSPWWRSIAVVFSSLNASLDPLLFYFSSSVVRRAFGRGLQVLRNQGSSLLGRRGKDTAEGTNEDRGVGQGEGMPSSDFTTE
Experimental: as §3, §4, §5

[9] = system: HCA2/GPR109A mRNA; test: HCA2/GPR109A gene expression in LPS-stimulated THP-1 macrophages (qRT-PCR); assay type: cell-based, human; details: compound 50 µM; 4 h LPS 1 µg/mL; p < 0.05
Experimental: as §1, §2

[10] = design: method as in PMID 32141297; details: calculated with ChemDraw Professional Version 16; cited from earlier work
[11] = system: FFA2/GPR43 mRNA; test: FFA2/GPR43 gene expression in LPS-stimulated THP-1 macrophages (qRT-PCR); assay type: cell-based, human; details: 4 h LPS 1 µg/mL
Experimental: as §1, §2

[12] = target: T1, FFA3/GPR41; design: method as in PMID 32141297; details: described in the literature; cited from earlier work
[13] = inhibition of forskolin-stimulated cAMP, absence of propionate, mean ± SD, read-out: FFA3/GPR41 EC50
[14] = presence of 5 µM propionate, read-out: FFA3/GPR41 EC50 in the presence of propionate

| Compound | decrease in TNF-α mRNA [1] [%] | decrease in MCP-1 mRNA [2] [%] | Emax ([3]; Flp-In-293, mean ± SD) [%] | EC50 [3, 13] [µM] | LPS-stimulated FFA3/GPR41 mRNA level [4] | decrease in IL-6 mRNA [6] [%] | LPS-stimulated HCA2/GPR109A mRNA level [9] | EC50 [3, 14] [µM] | El.ox. pot. (first, lower potential) [7] [V] | El.ox. pot. (second, higher potential) [7] [V] | logP [10] | other results |
| --- | --- | --- | --- | --- | --- | --- | --- | --- | --- | --- | --- | --- |
| O=c1[nH]c(=O)c2c(CCCCCl)cc(=O)oc2[nH]1 [2-7, 5-(4-Chlorobutyl)-1H-pyrano[2,3-d]pyrimidine-2,4,7-trione] | 48 ± 11 | 50 ± 5 | 89 | 0.22 ± 0.03 | significantly increased | 74 ± 3 | significantly reduced | – | – | – | – | Emax ([5]; HCA2): 98%; EC50 [5]: 0.054 ± 0.006 µM; El.ox. pot. (single value) [7]: 1.94 V; Emax ([8]; Flp-In-293, mean ± SD, read-out: FFA2/GPR43 Emax, maximal inhibition of forskolin-stimulated cAMP (converted)): 88%; EC50 ([8]; inhibition of forskolin-stimulated cAMP, mean ± SD): 0.38 ± 0.06 µM |
| CC1=C(C(=O)Nc2ccccc2C)C(c2ccco2)C2=C(CCCC2=O)N1 (stereo not drawn) [1-2] | 64 ± 13 | 67 ± 10 | 93 | 0.61 ± 0.09 | significantly increased | 74 ± 1 | – | 0.58 ± 0.03 | 1.19 | 1.99 | 2.18 | – |
| O=C(CSc1nc(=O)c2c(CCCCCl)cc(=O)oc2[nH]1)OCc1ccccc1 [3-3] | 53 ± 9 | 49 ± 5 | – | – | significantly increased | 65 ± 2 | significantly reduced | – | – | – | – | inhibition at 50 µM ([3]; Flp-In-293, 50 µM compound, NA = not active up to 50 µM): 72 ± 2%; Emax ([5]; HCA2): 85%; EC50 [5]: 17 ± 3 µM; inhibition at 50 µM ([8]; Flp-In-293): 66 ± 6% |
| CC1=C(C(=O)Nc2ccc(Cl)cc2Cl)C(c2ccco2)C2=C(CCCC2=O)N1 (stereo not drawn) [1-4, N-(2,4-Dichlorophenyl)-4-(furan-2-yl)-2-methyl-5-oxo-1,4,5,6,7,8-hexahydroquinoline-3-carboxamide] | 50 ± 2 | 37 ± 6 | 86 | 0.23 ± 0.07 | – | 64 ± 5 | – | 0.081 ± 0.04 | 1.24 | 1.67 | – | – |
| CC(Sc1nc(=O)c2c(CCCCCl)cc(=O)oc2[nH]1)C(=O)c1ccc(OCc2ccccc2)cc1 (stereo not drawn) [3-4, 2-[2-(4-Benzyloxy-phenyl)-1-methyl-2-oxo-ethylsulfanyl]-5-(4-chlorobutyl)-1H-pyrano[2,3-d]pyrimidine-4,7-dione] | 58 ± 10 | 41 ± 1 | 95 | 0.38 ± 0.1 | – | 61 ± 1 | significantly reduced | – | – | – | – | inhibition at 50 µM ([5]; HCA2, 50 µM compound, NA = not active up to 50 µM): 33 ± 16%; El.ox. pot. (single value) [7]: 1.98 V; inhibition at 50 µM ([8]; Flp-In-293): 49 ± 2% |
| CCC(=O)O [propionate, reference compound] | – | – | – | – | – | – | – | – | – | – | – | downregulation of LPS-induced TNF-α mRNA ([1]; propionate 1 mM): 42 ± 4%; downregulation of LPS-induced MCP-1 mRNA ([2]; propionate 1 mM): 33 ± 2%; downregulation of LPS-induced IL-6 mRNA ([6]; propionate 1 mM): 66 ± 5%; LPS-upregulated FFA2/GPR43 gene expression ([11]; propionate 1 mM, not statistically significant (p > 0.05)): slightly increased |
| CC1=C(C(=O)Nc2ccccc2C)C(c2cccs2)C2=C(CCCC2=O)N1 (stereo not drawn) [1-1] | 59 ± 10 | 53 ± 5 | 96 | 1.79 ± 0.3 | significantly increased | 67 ± 1 | – | 0.64 ± 0.2 | 1.19 | 1.64 | 2.65 | activity towards FFA2/GPR43 (in words) ([8]; cAMP assay): lacked activity |
| CC1=C(C(=O)Nc2cc(Cl)ccc2Cl)C(c2ccco2)C2=C(CCCC2=O)N1 (stereo not drawn) [1-3] | – | – | 99 | 0.32 ± 0.05 | – | – | – | 0.1 ± 0.02 | – | – | 2.90 | – |
| O=C(O)c1cccnc1 [niacin, reference compound] | – | – | – | – | – | – | – | – | – | – | – | downregulation of LPS-induced TNF-α mRNA ([1]; niacin 50 µM): 32 ± 3%; downregulation of LPS-induced MCP-1 mRNA ([2]; niacin 50 µM): 29 ± 1%; LPS-stimulated FFA3/GPR41 gene expression ([4]; niacin 50 µM): did not affect; LPS-stimulated FFA2/GPR43 gene expression ([11]; niacin 50 µM): did not affect |
| 4-i-butylhexahydroquinoline methyl ester [compound 28] | – | – | – | – | – | – | – | – | – | – | – | activity in the cAMP assay (in words) [12]: no activity |

From publication PMC8537386, “The Specificity and Broad Multitarget Properties of Ligands for the Free Fatty Acid Receptors FFA3/GPR41 and FFA2/GPR43 and the Related Hydroxycarboxylic Acid Receptor HCA2/GPR109A” (Pharmaceuticals, 2021)
